From PubChem BioAssay AID2060495 (Molecular Pharmacology Branch, DTP, NCI, 2025)
pIC50: −log10 of the molar value. Several values for one entry are separate records, joined by “and”; a condition that tells them apart may be missing. Equal entries are not always repeated.

Test system: 521955-158-R2-J5-PDC complex spheroid viability
Test: Anticancer human tumor 521955-158-R2-J5-PDC patient-derived pancreatic carcinoma cell line growth inhibition [GQUAD]
Conditions: for viability, T/C: stronger effect = lower value
From the text: DNA G-quadruplex Stabilizer Agents in Combinations in Complex Spheroids
A high-throughput screen of multi-cell type tumor spheroids was designed to identify active combinations of DNA G-quadruplex stabilizer agents and targeted small molecules. Complex spheroids include a stromal component modeled by human endothelial cells (HUVEC) and fibroblasts modeled by human mesenchymal stem cells (MSCs). The concentration ranges selected for each drug and investigational agent were based upon clinically achievable concentrations if the clinical Cmax of the agent was known.
Compounds. The drugs and investigational agents: pidnarulex (CX-5461; NSC782164), APTO-253 (NSC789042), BRACO-19 (NSC847499), peposertib (NSC802822), ceralasertib (NSC780249), elimusertib (NSC800525), camonsertib (NSC841442), AZD-1390 (NSC803789), olaparib (NSC753686), talazoparib (NSC767125), ART-558 (NSC835418), sotorasib (NSC818433), MRTX-1133 (NSC836407), SN-38 (NSC673596), topotecan (NSC609699), etoposide (NSC141540), doxorubicin (NSC123127), gemcitabine (NSC613327), 5-fluorouracil (NSC19893), paclitaxel (NSC125973), vemurafenib (NSC761431), panobinostat (NSC761190), R-306465 (JNJ-16241199; NSC773264), adavosertib (NSC754352), TP-3654 (NSC805149), carboplatin (NSC241240), KSQ-4279 (NSC840948), and staurosporine (NSC755774) were obtained from the National Cancer Institute (NCI) Developmental Therapeutics Program Chemical Repository (34). The FDA-approved anticancer drug set is available from the NCI Developmental Therapeutics Program. […] The stock solutions were prepared in dimethyl sulfoxide (DMSO, Sigma-Aldrich, St. Louis, MO, cat. D2650) at 800-fold the tested concentration and stored at -70 degrees C prior to their use. All drugs and investigational agents were tested over a range starting from a high concentration at or near the clinical Cmax and decreasing in half-log increments. If the clinical Cmax for an agent had not been determined, the highest concentration tested was 10 microM.
2.3 Cell Culture. All cells were maintained in an incubator at 37 degrees C and 5% CO2 with 95% humidity. The PDC lines were cultured according to standard operating procedures established by the NCI PDMR. All PDCs were thawed and cultured in Matrigel-coated flasks prepared with a working solution of 1X Ham's F-12 nutrient mix, without supplementation (Invitrogen, cat. 11765054), 100 U/mL penicillin-streptomycin (Invitrogen, cat. 15140122), and 2.5% Matrigel (Corning Inc., cat. 354248) for the first three passages. The 857933-349-R-J2-PDC line was cultured in 6C/Colon 1B media, which includes advanced DMEM/F-12 (Thermo Fisher Scientific, cat. 12634028), 10 mM HEPES (Thermo Fisher Scientific, cat. 15630080), 1X GlutaMAX supplement (Thermo Fisher Scientific, cat. 35050061), 0.1 mg/mL primocin (InvivoGen, cat. ant-pm-2), 10% defined fetal bovine serum, heat inactivated (HyClone Laboratories Inc., cat. SH30070.03HI), 50% L-WRN conditioned media (ATCC, cat. CRL-3276), 1.25 mM N-Acetyl-L-cysteine (Sigma-Aldrich, cat. A9165), 10 mM nicotinamide (Sigma-Aldrich, cat. N0636), 1X B-27 supplement (Thermo Fisher Scientific, cat. 17504044), 1X N-2 supplement (Thermo Fisher Scientific, cat. 17502048), 10 microM Y-27632 dihydrochloride (Tocris Bioscience, cat. 1254), and 50 ng/mL human EGF recombinant protein (Thermo Fisher Scientific, cat. PHG0311). The 485176-168-R4-J1-PDC line was cultured in Panc media, which includes all 6C/Colon 1B media components plus 100 ng/mL human FGF-10 (Thermo Fisher Scientific, cat. 100-26), 500 nM SB-431542 (Selleckchem, cat. S1067), and gastrin (Tocris, cat. 3006).
[…]
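Further: spheroids exposed to agents for one week before reading.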
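Wherever viability, T/C is given: 100% = DMSO vehicle control viability.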

`Cn1ncnc1[C@H]1c2n[nH]c(=O)c3cc(F)cc(c23)N[C@@H]1c1ccc(F)cc1` + CN(C)c1ccc(Nc2c3ccc(NC(=O)CCN4CCCC4)cc3nc3cc(NC(=O)CCN4CCCC4)ccc23)cc1 was tested, and the pIC50 (curve of first compound, second compound 0.0316 µM) was less than 6.50, the pIC50 (curve of first compound, second compound 0.1 µM) was less than 6.50 and the pIC50 (curve of first compound, second compound 0.316 µM) was less than 6.50. The pIC50 (curve of first compound, second compound 1 µM) was less than 6.50, the pIC50 (curve of first compound, second compound 3.16 µM) was less than 6.50 and the pIC50 (curve of first compound, second compound 10 µM) was less than 6.50. The viability, T/C (second compound 0.0316 µM, first compound 0.000999 µM) was 99.1%, the viability, T/C (second compound 0.0316 µM, first compound 0.00316 µM) was 89% and the viability, T/C (second compound 0.0316 µM, first compound 0.00999 µM) was 104%. For the same compound, the viability, T/C (second compound 0.0316 µM, first compound 0.0316 µM) was 91.1%, the viability, T/C (second compound 0.0316 µM, first compound 0.0999 µM) was 90.7% and the viability, T/C (second compound 0.0316 µM, first compound 0.316 µM) was 80%. It also gave a viability, T/C (second compound 0.1 µM, first compound 0.000999 µM) of 92.8%, a viability, T/C (second compound 0.1 µM, first compound 0.00316 µM) of 98.7% and a viability, T/C (second compound 0.1 µM, first compound 0.00999 µM) of 90%. For the same compound, the viability, T/C (second compound 0.1 µM, first compound 0.0316 µM) was 93.9%, the viability, T/C (second compound 0.1 µM, first compound 0.0999 µM) was 92.2% and the viability, T/C (second compound 0.1 µM, first compound 0.316 µM) was 81.4%. For the same compound, the viability, T/C (second compound 0.316 µM, first compound 0.000999 µM) was 97.5%, the viability, T/C (second compound 0.316 µM, first compound 0.00316 µM) was 95.7% and the viability, T/C (second compound 0.316 µM, first compound 0.00999 µM) was 93.3%. The viability, T/C (second compound 0.316 µM, first compound 0.0316 µM) was 90.6%, the viability, T/C (second compound 0.316 µM, first compound 0.0999 µM) was 88.2% and the viability, T/C (second compound 0.316 µM, first compound 0.316 µM) was 83.7%. For the same compound, the viability, T/C (second compound 1 µM, first compound 0.000999 µM) was 99.6%, the viability, T/C (second compound 1 µM, first compound 0.00316 µM) was 90.2% and the viability, T/C (second compound 1 µM, first compound 0.00999 µM) was 92.1%. It also gave a viability, T/C (second compound 1 µM, first compound 0.0316 µM) of 97%, a viability, T/C (second compound 1 µM, first compound 0.0999 µM) of 89.2% and a viability, T/C (second compound 1 µM, first compound 0.316 µM) of 73.7%. For the same compound, the viability, T/C (second compound 3.16 µM, first compound 0.000999 µM) was 87.4%, the viability, T/C (second compound 3.16 µM, first compound 0.00316 µM) was 77.9% and the viability, T/C (second compound 3.16 µM, first compound 0.00999 µM) was 76.4%. For the same compound, the viability, T/C (second compound 3.16 µM, first compound 0.0316 µM) was 67.5%, the viability, T/C (second compound 3.16 µM, first compound 0.0999 µM) was 74.7% and the viability, T/C (second compound 3.16 µM, first compound 0.316 µM) was 66.3%. The viability, T/C (second compound 10 µM, first compound 0.000999 µM) was 68.1%, the viability, T/C (second compound 10 µM, first compound 0.00316 µM) was 70.6% and the viability, T/C (second compound 10 µM, first compound 0.00999 µM) was 70.7%. For the same compound, the viability, T/C (second compound 10 µM, first compound 0.0316 µM) was 60.5%, the viability, T/C (second compound 10 µM, first compound 0.0999 µM) was 61.4% and the viability, T/C (second compound 10 µM, first compound 0.316 µM) was 59.4%.
In the case of `CC[C@@]1(O)C(=O)OCc2c1cc1n(c2=O)Cc2cc3c(CN(C)C)c(O)ccc3nc2-1`, the viability, T/C (compound 0.000999 µM) was 109% and 110% and 79.9%, the viability, T/C (compound 0.00316 µM) was 84.8% and 101% and 96.6% and the viability, T/C (compound 0.00999 µM) was 96.3% and 112% and 92.2%. The viability, T/C (compound 0.0316 µM) was 86.6% and 79.7% and 91.3%, the viability, T/C (compound 0.0999 µM) was 30.5% and 50.2% and 38% and the viability, T/C (compound 0.316 µM) was 8.07% and 27.5% and 13.2%. For the same compound, the pIC50 (curve of compound) was 7.17 and 7.03 and 7.12.
For `CC1COCCN1c1cc(-c2ccnn2C)c2ccnc(-c3ccn[nH]3)c2n1` (stereo not drawn), the viability, T/C (compound 0.0316 µM) was 86% and 82.9% and 82.7%, the viability, T/C (compound 0.1 µM) was 13.9% and 30.4% and 13.4% and the viability, T/C (compound 0.316 µM) was 10.9% and 17.4% and 9.83%. The viability, T/C (compound 1 µM) was 13.5% and 21.3% and 12.2%, the viability, T/C (compound 3.16 µM) was 16.9% and 33.8% and 15.8% and the viability, T/C (compound 10 µM) was 19.7% and 38.7% and 26.2%. For the same compound, the pIC50 (curve of compound) was 7.25 and 7.19 and 7.26.
In the case of `O=C(c1cc(Cc2n[nH]c(=O)c3ccccc23)ccc1F)N1CCN(C(=O)C2CC2)CC1`, the viability, T/C (compound 0.0316 µM) was 96.2% and 106% and 90.6%, the viability, T/C (compound 0.1 µM) was 93.6% and 88.4% and 70.8% and the viability, T/C (compound 0.316 µM) was 85.3% and 86.5% and 89.5%. The viability, T/C (compound 1 µM) was 65.6% and 88% and 66.8%, the viability, T/C (compound 3.16 µM) was 89.8% and 92.1% and 83.6% and the viability, T/C (compound 10 µM) was 91.2% and 81.6% and 80.2%. For the same compound, the pIC50 (curve of compound) was less than 5.00.
